We go through three compounds from patent US20070197560A1, “cGMP PDE 5 inhibitors for inhalation in the treatment of sexual dysfunction” (priority 1998, published 2007).

A short description of data set [1]: rodent pharmacokinetic model simulating inhalation: intratracheal dry powder blend with lactose. The note with it: rat.
Description: (§1) A calculated nominal dose of 8.4 μmol/kg is administered to each of 3 male Wistar:Han rats by administration directly into the trachea via the mouth and vocal chords from a Penn-Century dry powder delivery device actuated via a 2 ml syringe containing air as a propellent.
(§2) A calculated nominal dose of 2.1 μmol/kg is administered to each of 4 male Wistar:Han rats by administration directly into the trachea via the mouth and vocal chords from a Penn-Century dry powder delivery device actuated via a 2 ml syringe containing air as a propellent.
(§3) Each of 3 animals receives a dose equivalent to 2.1 μmol/kg.
On the set-up of data set [2]: species or system Male Wistar:Han rats. The note with it: rat, in vivo, inhaled or intranasal, 2.1 umol/kg, pH 6. On the procedure:
Male Wistar:Han rats used for this model are supplied by Harlan UK Ltd at 105 days of age and approximately 350 g weight. They are fed ad libitum with a standard laboratory diet and housed under controlled conditions (12 hours light/dark cycle; 20° C.) for at least one week prior to the experiment.
Compound A is dissolved, at a concentration of 1.75 mg/ml in 0.9% saline which has been acidified with 1M aqueous HCI (5 μl), giving a clear solution of pH 5.0. To the solution is added 1M aqueous NaOH (2μl) to increase the pH to 6.0, resulting in a very fine suspension. […] Each animal receives a 2.1 μmol/kg dose in 200 μl of suspension.
The following surgical procedure is used to prepare the animals for the experiment: the animals are anaesthetised, initially with 4% halothane, maintained with 2% halothane, both in a 1:1 oxygen: nitrous oxide mixture carrier. The anaesthetised animals are shaved on their ventral neck and craniodorsal back, then swabbed with a solution of 5% Hibitane in a 70% solution of ethanol in water. […] The patency of the cannula is assessed immediately before experimentation. […]
Withdrawn blood samples are analysed as follows: […]

The next data set can be described thus: in vivo. The note with it: male, Wistar:Han, rat, inhaled or intranasal, 2.1 umol/kg.

Description for in vivo: as §1, §2, §3

With `CCCOc1ccc(NS(C)(=O)=O)cc1-c1nc2c(c(C)nn2C)c(=O)[nH]1` [Compound D, 1,3-dimethyl-6-(2-propoxy-5-methanesulfonylamidophenyl)-1,5-dihydropyrazolo[3,4-d]pyrimidin-4-one], in data set [1] (6% blend with lactose, 2.1 μmol/kg), the “absorption time T max” value was 10 min.

As for `CCCc1nn(C)c2c(=O)[nH]c(-c3cc(S(=O)(=O)N4CCN(C)CC4)ccc3OCC)nc12` [Compound A, 5-[2-ethoxy-5-(4-methylpiperazinylsulfonyl)phenyl]-1-methyl-3-n-propyl-1,6-dihydro-7H-pyrazolo[4,3-d]pyrimidin-7-one], in data set [2], the “Tmax (absorption time; time to maximum concentration in plasma)” value was found to be 5 min. Also, the “time to peak plasma concentration (absorption time Tmax)” value in data set [1] (citrate salt micronised to less than 5 μM, diluted by weight to 40% in lactose, nominal dose 8.4 μmol/kg, 3 rats) was 2 min.

In general, Tmax refers to the time from dosing to the highest level. Consider `CCOc1cnccc1-c1nc2n(C3CCCC3)[nH]c(CC)c-2c(=O)n1` [Compound C, 1-cyclopentyl-3-ethyl-6-(3-ethoxy-4-pyridyl)-pyrazolo[3,4-d]pyrimidin-4-one], for which, in the data set “in vivo”, the Tmax lay within 2 to 20 min.
